63 molecules from patent US9023843B2, “Antimicrobial compounds and methods of making and using the same” (Melinta Therapeutics, Inc., priority 2009, dated 2015) can be followed below.

Structures are written as SMILES.

The experiment relates to Eschericia coli strain ATCC25922. Put plainly: standard microdilution assay to determine minimum inhibitory concentrations (MICs). It counts as cell-based. Conditions: Escherichia coli, read-out: E. coli ATCC25922 MIC. The method, then: Minimum inhibitory concentrations (MICs) are determined by the microdilution method, typically in a final volume of 100 microliters, according to protocols outlined by The Clinical and Laboratory Standards Institute [CLSI; formerly the National Committee for Clinical Laboratory Standards (NCCLS)]. See CLSI: Methods for dilution antimicrobial susceptibility tests for bacteria that grow aerobically; approved standard-fifth edition. Wayne, Pa.: NCCLS; 2000. The assays can be also be performed in microtiter trays according to conventional methodologies as published by the CLSI. See CLSI. Methods for Dilution Antimicrobial Susceptibility Tests for Bacteria That Grow Aerobically; Approved Standard-Seventh Edition. CLSI Document M7-A7 [ISBN 1-56238-587-9] CLSI, 940 West Valley Road, Suite 1400, Wayne Pa. 19087-1898 USA, 2006).
The compounds of the present invention were tested for antimicrobial activity. The compounds were run against Eschericia coli strain ATCC25922 using a standard microdilution assay to determine minimum inhibitory concentrations (MICs). […] A “N/A” means that data is unavailable. It will be recognized by one skilled in the art that the compounds can be assessed against other bacterial organisms and that the presentation of data for activity against Eschericia coli is illustrative and in no way is intended to limit the scope of the present invention. The compounds of the present invention can be assayed against a range of other microorganisms depending upon the performance activity desired to be gathered. Furthermore, the “+”, “−”, and “N/A” representation and the selection of a cutoff value of 16 micrograms/ml is also illustrative and in no way is intended to limit the scope of the present invention.
A general note: Broth dilution looks for growth in wells or tubes with falling amounts of substance.
Broadly, the MIC is the least concentration at which growth counts as inhibited. In the case of `NCCCNCc1ccc(-c2cn3c(=O)cc(-c4ccccc4F)[nH]c3nc2=O)cc1` [Compound 360], the MIC was greater than 16 µg/mL.

Consider `NCCCNCc1ccc(-c2cn3c(=O)cc(-c4cc(F)c(F)cc4F)[nH]c3nc2=O)cc1` [Compound 362], for which the minimum inhibitory concentration (MIC) was greater than 16 µg/mL.

`NCCCNCc1ccc(-c2cn3c(=O)cc(Cc4ccc(C(F)(F)F)cc4)[nH]c3nc2=O)cc1` [Compound 367]: the MIC is greater than 16 µg/mL.

In the case of `NCCCNCc1ccc(-c2cn3c(=O)cc(-c4ccccc4OC(F)(F)F)[nH]c3nc2=O)cc1` [Compound 371], the MIC was greater than 16 µg/mL.

As for `O=c1nc2[nH]c(-c3ccccc3F)cc(=O)n2cc1I` [Compound 375], the MIC is greater than 16 µg/mL.

For the molecule `NCCCNCc1ccc(-c2cn3c(=O)cc(-c4ccc(OC(F)(F)F)cc4)[nH]c3nc2=O)cc1` [Compound 377], the MIC is greater than 16 µg/mL.

As for `COc1ccc(-c2cc(=O)n3cc(-c4ccc(CNCCCN)cc4)c(=O)nc3[nH]2)cc1` [Compound 378], the MIC was greater than 16 µg/mL.

For `COc1cc(-c2cc(=O)n3cc(-c4ccc(CNCCCN)cc4)c(=O)nc3[nH]2)cc(OC)c1OC` [Compound 379], the MIC is greater than 16 µg/mL.

With `NCCCNCc1ccc(-c2cn3c(=O)cc(Cc4ccc5c(c4)OCO5)[nH]c3nc2=O)cc1` [Compound 380], the MIC was greater than 16 µg/mL.

As to `NCCCNCc1ccc(-c2cn3c(=O)cc(-c4ccc(Cl)c(Cl)c4)[nH]c3nc2=O)cc1` [Compound 390], the MIC was greater than 16 µg/mL.

In the case of `NCCCNCc1ccc(-c2cn3c(=O)cc(-c4ccc(C(F)(F)F)cc4)[nH]c3nc2=O)cc1` [Compound 391], the MIC is greater than 16 µg/mL.

On to `NCCCN1CCN(C(=O)Cn2cc3c(nc2=O)Nc2ccccc2O3)CC1` [Compound 392], for which the MIC was greater than 16 µg/mL.

Turning to `NCCCNCc1ccc(-n2cc3c(nc2=O)Nc2ccc(-c4ccc(F)cc4)cc2O3)cc1` [Compound 393], the MIC is greater than 16 µg/mL.

Consider `NCCCNCc1ccc(-n2cc3c(nc2=O)Nc2cc(Br)ccc2O3)cc1` [Compound 396], for which the MIC was greater than 16 µg/mL.

Regarding `NCCCNCc1ccc(-n2cc3c(nc2=O)Nc2ccc(-c4cnc(N5CCOCC5)nc4)cc2O3)cc1` [Compound 400], the MIC was greater than 16 µg/mL.

As for `NCCCNCc1ccc(-n2cc3c(nc2=O)Nc2cc(-c4ccc(F)cc4)ccc2O3)cc1` [Compound 402], the MIC was greater than 16 µg/mL.

For the molecule `NCCCNCc1ccc(-c2cn3c(=O)cc(Cc4ccc(F)c(F)c4)[nH]c3nc2=O)cc1` [Compound 411], the MIC was greater than 16 µg/mL.

On to `NCCCNCc1ccc(-c2cn3c(=O)cc(Cc4ccccc4OC(F)(F)F)[nH]c3nc2=O)cc1` [Compound 426], for which the MIC is greater than 16 µg/mL.

With `NCCCNCc1ccc(-c2cn3c(=O)cc(Cc4ccc(Cl)c(Cl)c4)[nH]c3nc2=O)cc1` [Compound 430], the MIC was greater than 16 µg/mL.

Take `NCCCNCc1ccc(-n2cc3c(nc2=O)Nc2cc(-c4cnc(N5CCOCC5)nc4)ccc2O3)cc1` [Compound 440]: the MIC was greater than 16 µg/mL.

For `NCCCNCc1ccc(-n2cc3c(nc2=O)Nc2ccc(Br)cc2O3)cc1` [Compound 442], the MIC is greater than 16 µg/mL.

`NCCCNCc1ccc(-c2cn3c(=O)cc(Cc4cccc([N+](=O)[O-])c4)[nH]c3nc2=O)cc1` [Compound 447]: the MIC is greater than 16 µg/mL.

Consider `NCCCNCc1ccc(-n2cc3c(nc2=O)Nc2ccc(C#Cc4ccc(F)cc4)cc2O3)cc1` [Compound 460], for which the MIC is greater than 16 µg/mL.

Consider `NCCCNCc1ccc(-c2cn3c(=O)cc(Cc4cc(F)c(F)cc4F)[nH]c3nc2=O)cc1` [Compound 469], for which the MIC is greater than 16 µg/mL.

Consider `NCCCN1CCC(n2cc3c(nc2=O)Nc2ccccc2O3)CC1` [Compound 528], for which the minimal inhibitory concentration (MIC) is greater than 16 µg/mL.

As for `N=C(N)NCCCN1CCC(n2cc3c(nc2=O)Nc2ccccc2O3)CC1` [Compound 529], the minimum inhibitory concentration (MIC) was greater than 16 µg/mL.

For `NCCCCCN1CC[C@@H](n2cc3c(nc2=O)Nc2ccccc2O3)C1` [Compound 543], the MIC was greater than 16 µg/mL.

With `NCCCCCN1CCCC(n2cc3c(nc2=O)Nc2ccccc2O3)CC1` (stereo not drawn) [Compound 544], the MIC was greater than 16 µg/mL.

With `NCCCCCN1CCC(n2cc3c(nc2=O)Nc2ccccc2O3)CC1` [Compound 557], the minimum inhibitory concentration (MIC) is greater than 16 µg/mL.

`NCCCNCc1ccc(-n2cc3c(nc2=O)Nc2ccc(CCc4ccc(F)cc4)cc2O3)cc1` [Compound 558]: the MIC is greater than 16 µg/mL.

As for `NCCCN1CC=C(c2cnc3n(CCCN)c(-c4ccc(F)cc4)cn3c2=O)CC1` [Compound 568], the MIC was greater than 16 µg/mL.

In the case of `NCCCN1CC=C(c2cnc3[nH]c(-c4ccc(F)cc4)cn3c2=O)CC1` [Compound 569], the minimum inhibitory concentration (MIC) was greater than 16 µg/mL.

In the case of `NCCCn1c(-c2ccc(F)cc2)cn2c(=O)c(C3=CCNCC3)cnc12` [Compound 570], the minimal inhibitory concentration (MIC) was greater than 16 µg/mL.

Take `N=C(N)NCCCCCN1CC[C@@H](n2cc3c(nc2=O)Nc2ccccc2O3)C1` [Compound 575]: the MIC was greater than 16 µg/mL.

For `N=C(N)NCCCCCN1CCCC(n2cc3c(nc2=O)Nc2ccccc2O3)CC1` (stereo not drawn) [Compound 576], the minimum inhibitory concentration (MIC) was greater than 16 µg/mL.

Take `O=c1nc2c(cn1C1CCNCC1)Oc1ccccc1N2` [Compound 578]: the MIC is greater than 16 µg/mL.

For the molecule `O=c1nc2c(cn1C1CCNCC1)Oc1ccc(CCc3cccc(F)c3)cc1N2` [Compound 579], the MIC was greater than 16 µg/mL.

On to `NCCCN1CCC(n2cc3c(nc2=O)Nc2cc(CCc4cccc(F)c4)ccc2O3)CC1` [Compound 592, 3-[1-(3-Amino-propyl)-piperidin-4-yl]-7-[2-(3-fluoro-phenyl)-ethyl]-3H,9H-10-oxa-1,3,9-triaza-anthracen-2-one], for which the MIC is less than 16 µg/mL.

Consider `O=c1nc2c(cn1C1CCCNCC1)Oc1ccccc1N2` (stereo not drawn) [Compound 595], for which the MIC was greater than 16 µg/mL.

As to `NCCCN1CCCC(n2cc3c(nc2=O)Nc2ccccc2O3)CC1` (stereo not drawn) [Compound 598], the MIC is greater than 16 µg/mL.

`N=C(N)NCCCN1CCCC(n2cc3c(nc2=O)Nc2ccccc2O3)CC1` (stereo not drawn) [Compound 603]: the MIC was less than 16 µg/mL.

For the molecule `NCCCCN1CCCC(n2cc3c(nc2=O)Nc2ccccc2O3)CC1` (stereo not drawn) [Compound 604], the MIC is greater than 16 µg/mL.

For the molecule `COC(=O)c1ccc2c(c1)Nc1nc(=O)n(C3CCN(CCCN)CC3)cc1O2` [Compound 606], the MIC is greater than 16 µg/mL.

With `CN(C)c1ncc(-c2ccc3c(c2)Nc2nc(=O)n(C4CCN(CCCN)CC4)cc2O3)cn1` [Compound 614], the MIC is greater than 16 µg/mL.

For the molecule `COc1ccc(-c2ccc3c(c2)Nc2nc(=O)n(C4CCN(CCCN)CC4)cc2O3)cc1F` [Compound 615], the minimum inhibitory concentration (MIC) is greater than 16 µg/mL.

As for `CN(C)c1ncc(-c2ccc3c(c2)Nc2nc(=O)n(C4CCN(CCCNC(=N)N)CC4)cc2O3)cn1` [Compound 627], the MIC was less than 16 µg/mL.

As for `N=C(N)NCCCN1CCC(n2cc3c(nc2=O)Nc2cc(C(=O)NCc4ccc(Br)cc4)ccc2O3)CC1` [Compound 638], the MIC was greater than 16 µg/mL.

`N=C(N)NCCCN1CCC(n2cc3c(nc2=O)Nc2cc(C(=O)NCC(F)(F)F)ccc2O3)CC1` [Compound 639]: the MIC was greater than 16 µg/mL.

Regarding `N=C(N)NCCCN1CCC(n2cc3c(nc2=O)Nc2cc(C(=O)NCCc4nc5ccccc5[nH]4)ccc2O3)CC1` [Compound 641], the MIC was greater than 16 µg/mL.

Take `N=C(N)NCCCN1CCC(n2cc3c(nc2=O)Nc2cc(C(=O)NCCCN4CCOCC4)ccc2O3)CC1` [Compound 642]: the MIC was greater than 16 µg/mL.

As for `N=C(N)NCCCN1CCC(n2cc3c(nc2=O)Nc2cc(C(=O)NCC(F)(F)C(F)(F)F)ccc2O3)CC1` [Compound 643], the MIC was greater than 16 µg/mL.

For `N=C(N)NCCCN1CCC(n2cc3c(nc2=O)Nc2cc(-c4cccc(C(=O)N5CCOCC5)c4)ccc2O3)CC1` [Compound 651], the MIC is greater than 16 µg/mL.

Take `N=C(N)NCCCN1CCC(n2cc3c(nc2=O)Nc2cc(C(=O)Nc4ccc(F)cc4F)ccc2O3)CC1` [Compound 656]: the MIC was greater than 16 µg/mL.

Consider `N=C(N)NCCCN1CCCC(n2cc3c(nc2=O)Nc2cc(C(=O)Nc4ccc(F)cc4F)ccc2O3)CC1` (stereo not drawn) [Compound 657], for which the minimal inhibitory concentration (MIC) is greater than 16 µg/mL.

As for `N=C(N)NCCCN1CCCC(n2cc3c(nc2=O)Nc2cc(C(=O)NCCCN4CCOCC4)ccc2O3)CC1` (stereo not drawn) [Compound 658], the minimal inhibitory concentration (MIC) was greater than 16 µg/mL.

`N=C(N)NCCCN1CCC(n2cc3c(nc2=O)Nc2cc(C(=O)NCCc4ccc(F)cc4)ccc2O3)CC1` [Compound 659]: the MIC is greater than 16 µg/mL.

As for `NCCCN1CCC(n2cc3c(nc2=O)Nc2cc(C(=O)NCCc4ccc(F)cc4)ccc2O3)CC1` [Compound 660], the minimum inhibitory concentration (MIC) was greater than 16 µg/mL.

As for `N=C(N)NCCCN1CCCC(n2cc3c(nc2=O)Nc2cc(-c4ccc(N5CCOCC5)cc4)ccc2O3)CC1` (stereo not drawn) [Compound 664], the MIC is greater than 16 µg/mL.

Turning to `N=C(N)NCCCN1CCCC(n2cc3c(nc2=O)Nc2cc(-c4ccc(C(F)(F)F)nc4)ccc2O3)CC1` (stereo not drawn) [Compound 667], the MIC is greater than 16 µg/mL.

As for `N=C(N)NCCCN1CCC(n2cc3c(nc2=O)Nc2cc(C(=O)NCCN4CCOCC4)ccc2O3)CC1` [Compound 669], the MIC was greater than 16 µg/mL.

Consider `N=C(N)NCCCNC1CCC(n2cc3c(nc2=O)Nc2cc(-c4ccc(C(F)(F)F)nc4)ccc2O3)CC1` (stereo not drawn) [Compound 671], for which the MIC is greater than 16 µg/mL.

In the case of `NCCCNC1CCC(n2cc3c(nc2=O)Nc2cc(-c4ccc(C(F)(F)F)nc4)ccc2O3)CC1` (stereo not drawn) [Compound 672], the minimum inhibitory concentration (MIC) is greater than 16 µg/mL.

Turning to `N=C(N)NCCCN1CCC(n2cc3c(nc2=O)Nc2cc(C(=O)NCCCN4CCCC4=O)ccc2O3)CC1` [Compound 674], the MIC was greater than 16 µg/mL.
